For experiment [1], the system named is N. gonorrhoeae F62 ΔlgtD. The format is cell-based, Neisseria gonorrhoeae. The protocol:
Generally, bacteria (F62 ΔlgtD) grown overnight on chocolate agar plates were suspended in gonococcal liquid media supplemented with IsoVitaleX [29] that contained specified concentrations of the CMP-nonulosonate. Bacteria were then incubated at 37° C. for the period specified in each experiment.
Serum bactericidal assays were performed as follows, similar to methods outlined in [32,33] and in U.S. Pat. No. 9,765,106. Bacteria were harvested from an overnight culture on chocolate agar plates and ˜10^5 CFU of Ng were grown in liquid media containing the concentrations of CMP-NuIO as specified for each experiment. Bacteria were diluted in Morse A and ˜2000 CFU of Ng F62 ΔlgtD were incubated with NHS (concentration specified for each experiment). The final reaction volumes were maintained at 150 μL. Aliquots of 25 μL of reaction mixtures were plated onto chocolate agar in duplicate at the beginning of the assay (t0) and again after incubation at 37° C. for 30 minutes (t30). Survival was calculated as the number of viable colonies at t30 relative to t0.
Addition of a terminal Neu5Ac residue to the LNnT LOS of N. gonorrhoeae that occurs in vivo or following the addition of CMP-Neu5Ac to growth media results in resistance to complement-dependent killing. We next determined the effects of LNnT incorporation of KDN on the ability of N. gonorrhoeae F62 ΔlgtD to resist complement-dependent killing by normal human sera at concentrations of 3.3% or 10%. Bacteria were grown either in media alone, or media supplemented with 20 μg/mL of CMP-Neu5Ac or CMP-KDN. In addition, CMP-NulO competition experiments were also performed with CMP-Neu5Ac, CMP-Leg5Ac7Ac and CMP-KDN at CMP-NulO concentrations of either 20 μg/mL or 2 μg/mL as indicated, where the second CMP-NulO was added 15 minutes after the first (Table 1 below). To note, these CMP-NulO competition experiments are a method to examine the ability of select CMP-NulOs to counter the enhanced serum resistance due to CMP-Neu5Ac addition, providing information on their therapeutic potential (as any potential therapeutic will be required to compete with CMP-Neu5Ac in vivo).

A further experiment concerns N. gonorrhoeae H041. The experiment can be described thus: BALB/c mouse vaginal colonization model. It counts as in vivo. Conditions: 10 μg intravaginally daily; Premarin treated BALB/c mice. As to the method: FIG. 2: Female BALB/c mice 5-6 weeks of age (Jackson Laboratories) in the diestrus phase of the estrous cycle were started on treatment (that day) with 0.5 mg of Premarin (Pfizer) given subcutaneously on each of three days; −2, 0 and +2 days (before, the day of and after inoculation) to prolong the estrus phase of the cycle and promote susceptibility to N. gonorrhoeae infection. Antibiotics (vancomycin, colistin, neomycin, trimethoprim and streptomycin) that were ineffective against N. gonorrhoeae were also used to reduce competitive microflora. Mice (n=40) were then infected with 10^6 CFU of strain H041. Three groups of mice (n=10/group) were treated with 10 μg intravaginally daily (first dose was administered 30 minutes before the introduction of bacteria) with one of the following CMP-NulOs in normal saline: CMP-Leg5Ac7Ac, CMP-Neu5Ac9Az or CMP-KDN. A fourth group (n=10) was given saline (vehicle control). Vaginal swabs were obtained daily from each animal, serially diluted and plated on chocolate agar containing vancomycin, colistin, neomycin, trimethoprim and streptomycin (VCNTS) to quantify bacterial loads. A. Median time to clearance was estimated using Kaplan-Meier survival curves; the times to clearance were compared between groups using a log-rank test. P<0.0001 for the control versus each of the treatment groups. Time to clearance between each of the treatment groups was similar (P>0.05). B. The mean area under the curve (log10 CFU vs. time) was computed for each mouse to estimate the bacterial burden over time (cumulative infection); the means under the curves were compared between groups using the Kruskal-Wallis nonparametric rank sum test because distributions were skewed or kurtotic. Groups were compared using Dunn's multiple comparison test. ****, P<0.0001; **, P<0.01; *, P<0.05. The differences among the groups that received CMP-NulOs were not significant.
The mouse model experiments and statistical analysis were conducted as described in the art and in U.S. Pat. No. 9,765,106. […]

For experiment [2], the system named is N. gonorrhoeae F62 ΔlgtD. To be noted: from U.S. patent application Ser. No. 14/627,396; cited from earlier work.
In experiment [3] the target is T1, gonococcal LOS sialyltransferase (Lst) (Neisseria gonorrhoeae, UniProt P72074).
T1 construct: CMP-KDN served as a substrate for gonococcal Lst in the context of live bacteria; endogenous in cells; host or cells: N. gonorrhoeae F62 ΔlgtD (live bacteria)
T1 sequence (P72074 whole entry): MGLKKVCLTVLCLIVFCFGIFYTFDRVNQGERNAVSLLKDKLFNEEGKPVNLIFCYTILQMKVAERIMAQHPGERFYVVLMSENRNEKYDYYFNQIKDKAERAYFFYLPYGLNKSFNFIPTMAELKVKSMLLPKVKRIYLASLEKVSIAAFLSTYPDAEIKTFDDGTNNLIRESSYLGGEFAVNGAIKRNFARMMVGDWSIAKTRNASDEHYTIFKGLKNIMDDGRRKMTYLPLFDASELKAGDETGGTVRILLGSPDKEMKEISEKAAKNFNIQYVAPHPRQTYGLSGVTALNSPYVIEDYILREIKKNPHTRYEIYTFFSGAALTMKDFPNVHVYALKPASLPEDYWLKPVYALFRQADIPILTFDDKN
Conditions: from U.S. patent application Ser. No. 14/627,396; cited from earlier work.

Experiment [4] concerns purified human FH. Conditions: from U.S. Pat. No. 9,765,106 / Ser. No. 14/627,396; cited from earlier work.
Experiment [5] concerns the target T1, gonococcal LOS sialyltransferase (Lst). Description: mAb 3F11 binding by flow cytometry (incorporation of NulO on LNnT LOS by Lst). It counts as cell-based, N. gonorrhoeae F62 ΔlgtD. To be noted: F62 ΔlgtD grown in media with 20 μg/mL CMP-NulO. The protocol:
FIG. 1: CMP-KDN serves as a substrate for gonococcal LOS and incorporation of KDN on gonococcal lacto-N-neotetraose LOS enhances factor H (FH) binding. A. Incorporation of KDN by gonococci. Gonococcal strain F62 ΔlgtD (expresses lacto-N-neotetraose (LNnT) from Hepl) was grown in media containing CMP-KDN (20 μg/mL) and binding of mAb 3F11 was measured by flow cytometry. mAb 3F11 binds only to […] LNnT; substitution of the terminal Gal of LNnT, for example with a NulO, will decrease mAb 3F11 binding. Approximately 5×10^7 bacteria were incubated with mAb 3F11 tissue culture supernatants for 15 minutes at 37° C. Binding of mAb 3F11 was disclosed with anti-mouse IgM FITC (Sigma; dilution of 1:100). Bacteria grown in CMP-Neu5Ac or in media alone were used as positive and negative controls for sialylation, respectively. A representative histogram is shown in the upper panel. […] B. Factor H (FH) binding to gonococci grown in CMP-KDN. Approximately 5×10^7 bacteria grown in media alone (no sialic acid), media plus CMP-Neu5Ac (20 μg/mL; positive control for FH binding) or in media containing CMP-KDN (20 μg/mL) were incubated with purified human FH (20 μg/mL) in HBSS** for 15 minutes at 37° C. and bound FH was detected with affinity isolated goat anti-human FH followed by anti-goat IgG FITC (Sigma; 1:100 dilution). A representative histogram is shown in the upper panel.
FIG. 3: CMP-KDN7N3 serves as a substrate for gonococcal Lst resulting in incorporation of KDN7N3 on gonococcal lacto-N-neotetraose (LNnT) LOS—Incorporation of KDN7N3 by gonococci. Gonococcal strain F62ΔlgtD (expresses lacto-N-neotetraose (LNnT) from Hepl) was grown in media containing CMP-KDN7N3 (20 μg/mL) and binding of mAb 3F11 was measured by flow cytometry. mAb 3F11 binds only to […] LNnT; substitution of the terminal Gal of LNnT, for example with a NulO, will decrease mAb 3F11 binding. Approximately 5×10^7 bacteria were incubated with mAb 3F11 tissue culture supernatants for 15 minutes at 37° C. Binding of mAb 3F11 was disclosed with anti-mouse IgM FITC (Sigma; dilution of 1:100). […]
(A flow cytometer gives signals particle by particle.)

Experiment [6] deals with purified human FH. Description: Factor H (FH) binding to gonococci by flow cytometry. It counts as cell-based. To be noted: F62 ΔlgtD grown with 20 μg/mL CMP-NulO, human FH 20 μg/mL. As to the method: FIG. 1: CMP-KDN serves as a substrate for gonococcal LOS and incorporation of KDN on gonococcal lacto-N-neotetraose LOS enhances factor H (FH) binding. A. Incorporation of KDN by gonococci. Gonococcal strain F62 ΔlgtD (expresses lacto-N-neotetraose (LNnT) from Hepl) was grown in media containing CMP-KDN (20 μg/mL) and binding of mAb 3F11 was measured by flow cytometry. mAb 3F11 binds only to […] LNnT; substitution of the terminal Gal of LNnT, for example with a NulO, will decrease mAb 3F11 binding. Approximately 5×10^7 bacteria were incubated with mAb 3F11 tissue culture supernatants for 15 minutes at 37° C. Binding of mAb 3F11 was disclosed with anti-mouse IgM FITC (Sigma; dilution of 1:100). Bacteria grown in CMP-Neu5Ac or in media alone were used as positive and negative controls for sialylation, respectively. A representative histogram is shown in the upper panel. […] B. Factor H (FH) binding to gonococci grown in CMP-KDN. Approximately 5×10^7 bacteria grown in media alone (no sialic acid), media plus CMP-Neu5Ac (20 μg/mL; positive control for FH binding) or in media containing CMP-KDN (20 μg/mL) were incubated with purified human FH (20 μg/mL) in HBSS** for 15 minutes at 37° C. and bound FH was detected with affinity isolated goat anti-human FH followed by anti-goat IgG FITC (Sigma; 1:100 dilution). A representative histogram is shown in the upper panel. […]

Setting [7] is: CMP-Neu5Ac (20 μg/mL) first, labelled CMP-NulO (20 μg/mL) added 15 minutes later.
[8] abbreviates: labelled CMP-NulO (20 μg/mL) first, CMP-Neu5Ac (2 μg/mL) added 15 minutes later.
Where [9] appears, read: labelled CMP-NulO (20 μg/mL) first, CMP-Neu5Ac (20 μg/mL) added 15 minutes later.

Each structure is given as a SMILES string. Where two headings read alike, the source gives them in different places.

As for `CC(=O)N[C@@H]([C@@H]1O[C@](OP(=O)(O)OC[C@H]2O[C@@H](n3ccc(N)nc3=O)[C@H](O)[C@@H]2O)(C(=O)O)C[C@H](O)[C@H]1NC(C)=O)[C@@H](C)O` [CMP-Leg5Ac7Ac], the “% survival in 3.3% serum” value in the experiment with N. gonorrhoeae F62 ΔlgtD [1] (setting [7]) is on record as 9%; in the experiment on N. gonorrhoeae F62 ΔlgtD [1] (setting [8]), 6%; in the experiment on N. gonorrhoeae F62 ΔlgtD [1] (setting [9]), 7%. For the same compound, the entries for the “% survival in 10% serum” value with N. gonorrhoeae F62 ΔlgtD [1] (setting [7]), in the experiment with N. gonorrhoeae F62 ΔlgtD [1] (setting [8]) and with N. gonorrhoeae F62 ΔlgtD [1] (setting [9]) were 5%, 6% and 3%, respectively. In the experiment with N. gonorrhoeae F62 ΔlgtD [1] (CMP-NulO competition, second CMP-NulO 15 minutes after the first, 3.3% and 10% serum), the “countering of serum resistance mediated by CMP-Neu5Ac (competition, in words)” value was “blocked serum resistance mediated by CMP-Neu5Ac at both 3.3% and 10% serum concentrations irrespective of the order of addition”. Also, the “attenuation of N. gonorrhoeae H041 infection” value with N. gonorrhoeae H041 was “significantly attenuated”. Moreover, in the experiment on N. gonorrhoeae F62 ΔlgtD [2], the “serum resistance / serum-mediated killing (earlier results)” value was “enhanced serum-mediated killing”. The “substrate for gonococcal LOS sialyltransferase (Lst) (earlier results)” value in experiment [3] was “can serve as substrates for gonococcal LOS sialyltransferase (Lst)”. In the experiment with purified human FH [4], the “fH binding to bacteria (earlier results)” value is listed as “not enhance fH binding above levels seen with an unsialylated F62 ΔlgtD control”.

As for `CC(=O)N[C@H]1[C@H]([C@H](O)[C@H](O)CO)O[C@](OP(=O)(O)OC[C@H]2O[C@@H](n3ccc(N)nc3=O)[C@H](O)[C@@H]2O)(C(=O)O)C[C@@H]1O` [CMP-Neu5Ac], in the experiment with N. gonorrhoeae F62 ΔlgtD [1] (Table 1, CMP-NulO 20 μg/mL alone), the “% survival in 10% serum” value came to 115%. In addition, in the experiment with N. gonorrhoeae F62 ΔlgtD [1] (Table 5, CMP-NulO 20 μg/mL), the “% survival in 3.3% serum” value came out at 133.03% and the “% survival in 10% serum” value is 129.02%. Moreover, in experiment [5], the “binding of mAb 3F11 (use as substrate by gonococcal Lst)” value is on record as “decreased binding of mAb 3F11 similarly”. Besides, the “fH binding to bacteria” value in the experiment with purified human FH [6] is recorded as “Maximal fH binding”.

These data come from US20210401863A1, “TREATMENT AND PREVENTION OF NEISSERIA GONORRHOEAE INFECTION USING CMP-ACTIVATED NONULOSONATE ANALOG COMPOUNDS” (NATIONAL RESEARCH COUNCIL OF CANADA, priority 2015, published 2021).
